The text below walks through data of patent US20170340588A1, “MODULATION OF REGULATORY T CELLS VIA G-COUPLED PROTEIN RECEPTOR 43” (President and Fellows of Harvard College, priority 2013, published 2017).

For data set [1] the following is noted: mouse, in vivo.
Method: At the conclusion of the experiment mice were removed from isolators and processed immediately.
Cecal or small intestinal contents were collected immediately after animals were sacrificed and flash frozen in N2(1). Samples were mashed in 500 μl HPLC grade water and centrifuged at >14,000 x g, the resulting supernatant was then passed through a 0.22 μm syringe filter to remove bacterial cells and debris. Samples we then acidified with 1/10 volume of 0.01M H2SO4, heated and passed through a condenser to isolate volatile compounds within a sample. SCFA analyses were performed using an Agilent 1200 series HPLC and a Poroshell 120 SB C18 column (2.7 μm, 3.0×100mm) with guard column (Agilent Technologies). Sulfuric acid (0.01M) was used as the mobile phase. SCFA concentrations were weight corrected.
Data set [2] in a line: Stability of SCFA mix in mouse water bottle over time. It counts as physicochemical. Conditions: for SCFA mix in mouse water bottle over time, Day 1 / SCFA mix in mouse water bottle over time, Day 4 / SCFA mix in mouse water bottle over time, Day 7 / SCFA mix in mouse water bottle over time, Day 10 / SCFA mix in mouse water bottle over time, Day 14 / SCFA mix in mouse water bottle over time, Day 90: input 200 mM.
Method: Mice were treated for 21 days with either sodium acetate (150 mM), sodium propionate (150 mM), sodium butyrate (100 mM) or a SCFA mix (67.5 mM acetate, 40 mM Butyrate, 25.9 mM Propionate) in the drinking water. In in vivo drinking water treatment experiments, control mice received pH and sodium-matched water. At the conclusion of the experiment mice were removed from isolators and processed immediately.

Data set [3] concerns colonic Treg (cTreg). Briefly: Antibiotic (vancomycin) treatment of SPF mice with or without SCFA. Type of data set: in vivo. The note with it: SPF mice, vancomycin alone in drinking water. The protocol:
Science 341: 1645 (2013). […] The crude cell suspension was loaded onto a 40%/90% Percoll (GE Healthcare) gradient and centrifuged at 720 x g for 25 min at room temperature with acceleration and brake turned off. LP lymphocytes were collected from the 40%/90% interface. Intracellular staining of the transcription factors Foxp3, Helios and T-bet was performed using the Foxp3 Fix/Perm Buffer Set (Biolegend). For detection of intracellular cytokines, cells were first stimulated for 4 h with 50 ng/ml PMA and 1 μg/ml ionomycin in the presence of Brefeldin A (All obtained from Sigma), followed by staining for surface markers. Cells were then fixed and permeabilized using the Foxp3 Fix/Perm Buffer Set (Biolegend) and stained for intracellular cytokines. The following antibodies were used: […] All antibodies were obtained from Biolegend unless otherwise noted. Flow cytometry was performed using LSRII and data were analyzed with FlowJo software (TreeStar, Inc.). Cell sorting was performed using a […] at the Dana-Farber Cancer Institute Flow Cytometry Core.

Like-named read-outs stand apart in the source and are kept apart here.

On to `CCCC(=O)O` [Butyrate, butyric acid], for which, in data set [1] (BALB/c, 2 weeks), the “SCFA levels, cecal contents, SPF + B” value amounted to 29.78 ± 6.202 µmol/g. For the same compound, in data set [1] (BALB/c, 21 days), the “SCFA levels, cecal contents, GF + B” value stood at 11.46 ± 1.46 µmol/g and the “SCFA levels, cecal contents, GF + Mic” value stood at 20.6 ± 3.96 µmol/g. In data set [1], the “SCFA levels, SPF SI” value was found to be 7.183 ± 2.39 µmol/g; the “SCFA levels, cecal contents, ASF” value is 16.89 ± 1.46 µmol/g; the “SCFA levels, cecal contents, GF” value was determined as 2.13 ± 0.598 µmol/g; the “SCFA levels, cecal contents, SPF” value is 18.52 ± 4.92 µmol/g. In data set [1] (2 weeks), the “SCFA levels, SPF SI + P” value is 6.45 ± 2.11 µmol/g. In data set [1] (4 weeks), the “SCFA levels, cecal contents, SPF + Vanco” value was 1.04 ± 0.903 µmol/g. Besides, in data set [2], the “SCFA mix in mouse water bottle over time, Input (Day 0)” value was found to be 200 mM; the “SCFA mix in mouse water bottle over time, Day 1” value was found to be 203.09 mM; the “SCFA mix in mouse water bottle over time, Day 4” value was determined as 202.85 mM; the “SCFA mix in mouse water bottle over time, Day 7” value is recorded as 202.27 mM. In data set [2], the “SCFA mix in mouse water bottle over time, Day 10” value was found to be 202.69 mM; the “SCFA mix in mouse water bottle over time, Day 14” value turned out to be 202.19 mM; the “SCFA mix in mouse water bottle over time, Day 90” value is 38 mM.

On to `CC(=O)O` [Acetate, acetic acid], for which, in data set [1], the “SCFA levels, SPF SI” value worked out at 15.19 ± 9.2 µmol/g; the “SCFA levels, SPF SI + P” value stood at 15.46 ± 3.69 µmol/g; the “SCFA levels, cecal contents, ASF” value turned out to be 28.69 ± 8.32 µmol/g; the “SCFA levels, cecal contents, GF” value was 2.82 ± 0.534 µmol/g. Further, in data set [1], the “SCFA levels, cecal contents, GF + A” value is 16.18 ± 4.65 µmol/g; the “SCFA levels, cecal contents, GF + Mic” value was 20.83 ± 0.47 µmol/g; the “SCFA levels, cecal contents, SPF” value worked out at 40.66 ± 5.86 µmol/g; the “SCFA levels, cecal contents, SPF + A” value came out at 53.95 ± 1.91 µmol/g. Further, the “SCFA levels, cecal contents, SPF + Vanco” value in data set [1] is 8.63 ± 1.73 µmol/g. Moreover, in data set [2], the “SCFA mix in mouse water bottle over time, Input (Day 0)” value worked out at 200 mM; the “SCFA mix in mouse water bottle over time, Day 1” value was found to be 195 mM; the “SCFA mix in mouse water bottle over time, Day 4” value was found to be 220.1 mM; the “SCFA mix in mouse water bottle over time, Day 7” value worked out at 192.2 mM. In data set [2], the “SCFA mix in mouse water bottle over time, Day 10” value is 196.3 mM; the “SCFA mix in mouse water bottle over time, Day 14” value worked out at 202.5 mM; the “SCFA mix in mouse water bottle over time, Day 90” value amounted to 56.1 mM.

For the compound `CN[C@H](CC(C)C)C(=O)N[C@H]1C(=O)N[C@@H](CC(N)=O)C(=O)N[C@H]2C(=O)N[C@H]3C(=O)N[C@H](C(=O)N[C@H](C(=O)O)c4cc(O)cc(O)c4-c4cc3ccc4O)[C@H](O)c3ccc(c(Cl)c3)Oc3cc2cc(c3O[C@@H]2O[C@H](CO)[C@@H](O)[C@H](O)[C@H]2O[C@H]2C[C@](C)(N)[C@H](O)[C@H](C)O2)Oc2ccc(cc2Cl)[C@H]1O` [vancomycin, reference compound], the cTreg level entry in data set [3] is “reduced”.
